Experiments:
BRG-1 = BRG-1 (Homo sapiens, UniProt P51532); assay: ATPase catalytic activity of BRG-1 (ADP-Glo in vitro biochemical assay); details: for BRG1 Max % Inhibition: Table 5
BRM = BRM (Homo sapiens, UniProt P51531); assay: ATPase catalytic activity of BRM (ADP-Glo in vitro biochemical assay); details: for BRM Max % Inhibition: Table 5
Chain of BRM (P51531 whole entry): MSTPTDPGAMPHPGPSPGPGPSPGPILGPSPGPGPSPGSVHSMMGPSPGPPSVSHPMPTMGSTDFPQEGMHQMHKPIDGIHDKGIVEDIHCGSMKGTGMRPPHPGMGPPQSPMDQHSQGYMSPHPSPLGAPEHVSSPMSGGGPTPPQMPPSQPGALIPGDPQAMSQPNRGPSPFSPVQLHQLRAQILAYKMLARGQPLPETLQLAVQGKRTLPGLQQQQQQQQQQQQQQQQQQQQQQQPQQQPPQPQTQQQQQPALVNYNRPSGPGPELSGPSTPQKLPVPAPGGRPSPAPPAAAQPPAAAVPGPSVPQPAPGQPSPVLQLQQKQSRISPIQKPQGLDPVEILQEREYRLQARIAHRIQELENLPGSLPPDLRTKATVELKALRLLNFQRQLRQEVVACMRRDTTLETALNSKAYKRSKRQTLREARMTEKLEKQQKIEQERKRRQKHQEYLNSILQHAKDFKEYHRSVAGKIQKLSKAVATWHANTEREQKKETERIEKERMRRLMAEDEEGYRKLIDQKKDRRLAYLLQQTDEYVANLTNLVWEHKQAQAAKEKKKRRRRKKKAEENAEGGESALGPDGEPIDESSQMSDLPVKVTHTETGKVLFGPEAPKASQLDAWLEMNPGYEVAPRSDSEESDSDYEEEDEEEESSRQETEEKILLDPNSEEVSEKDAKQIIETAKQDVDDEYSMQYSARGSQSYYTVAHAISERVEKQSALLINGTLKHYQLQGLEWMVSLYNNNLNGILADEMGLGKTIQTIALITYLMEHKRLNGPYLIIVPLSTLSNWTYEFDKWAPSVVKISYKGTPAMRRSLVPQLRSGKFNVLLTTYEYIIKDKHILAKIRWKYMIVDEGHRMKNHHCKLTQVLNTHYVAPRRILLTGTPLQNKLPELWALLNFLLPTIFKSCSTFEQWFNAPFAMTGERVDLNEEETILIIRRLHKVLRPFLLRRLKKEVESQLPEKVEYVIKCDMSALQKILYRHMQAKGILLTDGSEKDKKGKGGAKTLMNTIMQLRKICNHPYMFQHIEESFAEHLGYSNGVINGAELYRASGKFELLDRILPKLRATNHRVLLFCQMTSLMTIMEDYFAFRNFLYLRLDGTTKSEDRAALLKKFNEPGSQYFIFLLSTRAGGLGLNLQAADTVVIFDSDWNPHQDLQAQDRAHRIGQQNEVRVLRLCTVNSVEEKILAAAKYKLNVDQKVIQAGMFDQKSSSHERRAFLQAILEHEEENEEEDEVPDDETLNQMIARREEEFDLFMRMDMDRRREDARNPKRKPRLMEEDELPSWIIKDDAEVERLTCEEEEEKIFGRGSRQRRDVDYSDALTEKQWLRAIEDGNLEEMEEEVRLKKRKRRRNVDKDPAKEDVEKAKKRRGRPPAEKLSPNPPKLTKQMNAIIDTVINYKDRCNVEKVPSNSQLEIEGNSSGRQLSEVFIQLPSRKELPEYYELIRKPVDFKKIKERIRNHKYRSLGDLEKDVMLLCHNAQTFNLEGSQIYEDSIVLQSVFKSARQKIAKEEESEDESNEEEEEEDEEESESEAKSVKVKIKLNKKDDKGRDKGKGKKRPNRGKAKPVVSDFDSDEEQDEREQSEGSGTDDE

Chain of BRG-1 (P51532 whole entry): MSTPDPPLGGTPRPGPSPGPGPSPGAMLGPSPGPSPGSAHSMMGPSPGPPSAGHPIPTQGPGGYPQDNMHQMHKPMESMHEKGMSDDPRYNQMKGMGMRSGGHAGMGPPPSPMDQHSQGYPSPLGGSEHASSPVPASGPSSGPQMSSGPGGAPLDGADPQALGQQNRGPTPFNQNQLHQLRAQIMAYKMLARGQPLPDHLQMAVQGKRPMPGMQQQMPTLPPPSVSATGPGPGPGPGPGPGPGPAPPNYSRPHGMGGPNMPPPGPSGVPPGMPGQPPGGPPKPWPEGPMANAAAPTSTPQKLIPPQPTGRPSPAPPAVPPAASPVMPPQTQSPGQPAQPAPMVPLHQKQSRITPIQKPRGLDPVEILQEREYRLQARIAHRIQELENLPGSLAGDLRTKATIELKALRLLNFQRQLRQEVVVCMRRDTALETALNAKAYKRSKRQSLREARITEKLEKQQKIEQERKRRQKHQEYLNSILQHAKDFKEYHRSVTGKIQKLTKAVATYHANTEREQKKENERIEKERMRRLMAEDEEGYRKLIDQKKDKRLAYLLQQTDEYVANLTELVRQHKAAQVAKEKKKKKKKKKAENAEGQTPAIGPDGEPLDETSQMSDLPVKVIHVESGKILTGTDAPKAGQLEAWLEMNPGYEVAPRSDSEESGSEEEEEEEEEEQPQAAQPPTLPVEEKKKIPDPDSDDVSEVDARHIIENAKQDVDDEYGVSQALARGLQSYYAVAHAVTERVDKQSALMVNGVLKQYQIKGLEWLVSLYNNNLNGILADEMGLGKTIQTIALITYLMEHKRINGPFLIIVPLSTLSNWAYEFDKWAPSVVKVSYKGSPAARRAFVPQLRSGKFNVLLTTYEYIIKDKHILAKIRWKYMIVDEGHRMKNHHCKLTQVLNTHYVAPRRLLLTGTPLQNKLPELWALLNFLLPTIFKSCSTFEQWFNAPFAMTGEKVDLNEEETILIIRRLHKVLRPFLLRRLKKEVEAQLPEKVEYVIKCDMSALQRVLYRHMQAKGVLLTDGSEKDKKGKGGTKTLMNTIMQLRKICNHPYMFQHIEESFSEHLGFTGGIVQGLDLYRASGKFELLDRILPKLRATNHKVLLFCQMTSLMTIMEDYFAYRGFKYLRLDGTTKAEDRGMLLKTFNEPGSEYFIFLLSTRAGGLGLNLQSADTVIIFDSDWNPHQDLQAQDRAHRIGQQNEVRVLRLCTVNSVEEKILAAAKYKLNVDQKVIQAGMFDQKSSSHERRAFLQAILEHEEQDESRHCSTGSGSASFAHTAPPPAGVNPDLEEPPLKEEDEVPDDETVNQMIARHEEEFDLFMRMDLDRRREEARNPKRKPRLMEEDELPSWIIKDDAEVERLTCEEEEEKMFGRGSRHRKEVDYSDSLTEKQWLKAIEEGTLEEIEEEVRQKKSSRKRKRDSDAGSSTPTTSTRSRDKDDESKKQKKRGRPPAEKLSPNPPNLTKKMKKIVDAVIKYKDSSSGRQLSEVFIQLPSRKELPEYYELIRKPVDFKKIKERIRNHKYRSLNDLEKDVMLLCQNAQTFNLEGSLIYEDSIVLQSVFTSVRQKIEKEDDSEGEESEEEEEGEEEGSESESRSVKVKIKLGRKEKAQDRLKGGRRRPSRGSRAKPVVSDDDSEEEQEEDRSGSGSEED

SMILES: CN(C)S(=O)(=O)c1cccc(C(=O)NCC(=O)Nc2nc(-c3ccc(CN)cc3)cs2)c1 [Compound 22, N-[2-[[4-[4-(aminomethyl)phenyl]thiazol-2-yl]amino]-2-oxo-ethyl]-3-(dimethylsulfamoyl)benzamide]
- IC50 (BRG-1): > 10 µM
- BRG1 Max % Inhibition (BRG-1): >60%
- IC50 (BRM): > 10 µM
- BRM Max % Inhibition (BRM): >70%

SMILES: CS(=O)(=O)c1cccc(C(=O)NCC(=O)Nc2nc(-c3ccccc3)cs2)c1 [Compound 23, 3-methylsulfonyl-N-[2-oxo-2-[(4-phenylthiazol-2-yl)amino]ethyl]benzamide]
- IC50 (BRG-1): 1 to 10 µM
- BRG1 Max % Inhibition (BRG-1): >50%
- IC50 (BRM): 1 to 10 µM
- BRM Max % Inhibition (BRM): >70%

SMILES: CSCC[C@H](NC(=O)c1cccc(S(=O)(=O)N(C)C)c1)C(=O)Nc1nc(-c2ccccc2)cs1 [Compound 24, (S)-3-(N,N-dimethylsulfamoyl)-N-(4-(methylthio)-1-oxo-1-((4-phenylthiazol-2-yl)amino)butan-2-yl)benzamide]
- BRG1 Max % Inhibition (BRG-1): >99%
- IC50 (BRM): 1 to 10 µM
- BRM Max % Inhibition (BRM): >70%

SMILES: CN(C)S(=O)(=O)c1cccc(C(=O)N[C@@H](CN)C(=O)Nc2nc(-c3ccccc3)cs2)c1 [Compound 25, (S)—N-(3-amino-1-oxo-1-((4-phenylthiazol-2-yl)amino)propan-2-yl)-3-(N,N-dimethylsulfamoyl)benzamide]
- IC50 (BRG-1): > 10 µM
- BRG1 Max % Inhibition (BRG-1): >50%
- IC50 (BRM): > 10 µM
- BRM Max % Inhibition (BRM): >70%

SMILES: CNS(=O)(=O)c1cccc(C(=O)NCC(=O)Nc2nc(-c3ccccc3)cs2)c1 [Compound 26, 3-(methylsulfamoyl)-N-[2-oxo-2-[(4-phenylthiazol-2-yl)amino]ethyl]benzamide]
- IC50 (BRG-1): > 10 µM
- BRG1 Max % Inhibition (BRG-1): <30%
- IC50 (BRM): > 10 µM
- BRM Max % Inhibition (BRM): >60%

SMILES: CN(C)S(=O)(=O)c1cccc(C(=O)NCC(=O)Nc2nc(-c3ccccc3C#N)cs2)c1 [Compound 27, N-(2-((4-(2-cyanophenyl)thiazol-2-yl)amino)-2-oxoethyl)-3-(N,N-dimethylsulfamoyl)benzamide]
- IC50 (BRG-1): > 10 µM
- BRG1 Max % Inhibition (BRG-1): >30%
- IC50 (BRM): > 10 µM
- BRM Max % Inhibition (BRM): >60%

SMILES: NS(=O)(=O)c1cccc(C(=O)NCC(=O)Nc2nc(-c3ccccc3)cs2)c1 [Compound 28, N-(2-oxo-2-((4-phenylthiazol-2-yl)amino)ethyl)-3-sulfamoylbenzamide]
- IC50 (BRG-1): 1 to 10 µM
- BRG1 Max % Inhibition (BRG-1): >30%
- IC50 (BRM): 1 to 10 µM
- BRM Max % Inhibition (BRM): >50%

SMILES: Cc1cccc(C)c1-c1csc(NC(=O)CNC(=O)c2cccc(S(=O)(=O)N(C)C)c2)n1 [Compound 29, N-[2-[[4-(2,6-dimethylphenyl)thiazol-2-yl]amino]-2-oxo-ethyl]-3-(dimethylsulfamoyl)benzamide]
- IC50 (BRG-1): > 10 µM
- BRG1 Max % Inhibition (BRG-1): >60%
- IC50 (BRM): > 10 µM
- BRM Max % Inhibition (BRM): >50%

SMILES: Cc1ccc(-c2csc(NC(=O)CNC(=O)c3cccc(S(=O)(=O)N(C)C)c3)n2)cc1 [Compound 31, 3-(dimethylsulfamoyl)-N-[2-oxo-2-[[4-(p-tolyl)thiazol-2-yl]amino]ethyl]benzamide]
- IC50 (BRG-1): 1 to 10 µM
- BRG1 Max % Inhibition (BRG-1): <30%
- IC50 (BRM): 1 to 10 µM
- BRM Max % Inhibition (BRM): >30%

SMILES: CN(C)S(=O)(=O)c1cccc(C(=O)NCC(=O)Nc2nc(-c3ccccn3)cs2)c1 [Compound 32, 3-(dimethylsulfamoyl)-N-[2-oxo-2-[[4-(2-pyridyl)thiazol-2-yl]amino]ethyl]benzamide]
- IC50 (BRG-1): > 10 µM
- BRG1 Max % Inhibition (BRG-1): <30%
- IC50 (BRM): > 10 µM
- BRM Max % Inhibition (BRM): >30%

SMILES: CN(C)S(=O)(=O)c1cccc(C(=O)NCC(=O)Nc2nc(-c3cccc(C(=O)O)c3)cs2)c1 [Compound 33, 3-[2-[[2-[[3-(dimethylsulfamoyl)benzoyl]amino]acetyl]amino]thiazol-4-yl]benzoic acid]
- IC50 (BRG-1): > 10 µM
- BRG1 Max % Inhibition (BRG-1): >80%
- IC50 (BRM): > 10 µM
- BRM Max % Inhibition (BRM): >80%

SMILES: CN(C)S(=O)(=O)c1cccc(C(=O)NCC(=O)Nc2nc(C3CCCCC3)cs2)c1 [Compound 34, N-[2-[(4-cyclohexylthiazol-2-yl)amino]-2-oxo-ethyl]-3-(dimethylsulfamoyl)benzamide]
- IC50 (BRG-1): > 10 µM
- BRG1 Max % Inhibition (BRG-1): >60%
- IC50 (BRM): > 10 µM
- BRM Max % Inhibition (BRM): >90%

SMILES: CC(C)c1csc(NC(=O)CNC(=O)c2cccc(S(=O)(=O)N(C)C)c2)n1 [Compound 35, 3-(dimethylsulfamoyl)-N-[2-[(4-isopropylthiazol-2-yl)amino]-2-oxoethyl]benzamide]
- IC50 (BRG-1): > 10 µM
- BRG1 Max % Inhibition (BRG-1): >90%
- IC50 (BRM): > 10 µM
- BRM Max % Inhibition (BRM): >95%

SMILES: CS(=O)(=O)c1cccc(C(=O)NCC(=O)Nc2nc(-c3cccc(-c4ccccc4)c3)cs2)c1 [Compound 36, 3-methylsulfonyl-N-[2-oxo-2-[[4-(3-phenylphenyl)thiazol-2-yl]amino]ethyl]benzamide]
- IC50 (BRG-1): 1 to 10 µM
- BRG1 Max % Inhibition (BRG-1): >90%
- IC50 (BRM): < 1 µM
- BRM Max % Inhibition (BRM): >95%

SMILES: CN(C)C(=O)c1cccc(-c2csc(NC(=O)CNC(=O)c3cccc(S(=O)(=O)N(C)C)c3)n2)c1 [Compound 37, 3-[2-[[2-[[3-(dimethylsulfamoyl)benzoyl]amino]acetyl]amino]thiazol-4-yl]-N,N-dimethyl-benzamide]
- IC50 (BRG-1): > 10 µM
- BRG1 Max % Inhibition (BRG-1): >30%
- IC50 (BRM): > 10 µM
- BRM Max % Inhibition (BRM): >50%

SMILES: CSCC[C@H](NC(=O)c1ccc(NS(C)(=O)=O)cc1)C(=O)Nc1nc(-c2ccccc2)cs1 [Compound 38, 4-(methanesulfonamido)-N-[(1S)-3-methylsulfanyl-1-[(4-phenylthiazol-2-yl)carbamoyl]propyl]benzamide]
- IC50 (BRG-1): > 10 µM
- BRG1 Max % Inhibition (BRG-1): >80%
- IC50 (BRM): > 10 µM
- BRM Max % Inhibition (BRM): >80%

SMILES: O=C(CNC(=O)c1cccc(S(=O)(=O)C2CC2)c1)Nc1nc(-c2ccccc2)cs1 [Compound 39, 3-cyclopropylsulfonyl-N-[2-oxo-2-[(4-phenylthiazol-2-yl)amino]ethyl]benzamide]
- IC50 (BRG-1): > 10 µM
- BRG1 Max % Inhibition (BRG-1): <30%
- IC50 (BRM): > 10 µM
- BRM Max % Inhibition (BRM): >30%

SMILES: CN(C)S(=O)(=O)c1cccc(C(=O)NCC(=O)Nc2cccc(-c3ccccc3)c2)c1 [Compound 40, 3-(dimethylsulfamoyl)-N-[2-oxo-2-(3-phenylanilino)ethyl]benzamide]
- BRG1 Max % Inhibition (BRG-1): <30%
- BRM Max % Inhibition (BRM): >50%
